# Values of other authors as cited in patent US6733485B1, “Microstimulator-based electrochemotherapy methods and systems” (Advanced Bionics Corporation, priority 2001, dated 2004).
# Structures can show the parent of a compound that is named as a salt. Where two headings read alike, the source gives them in different places.
# Columns and labels:
# [1] = system: rat and human glioma cells
# [2] = system: malignant melanoma skin metastases
# [3] = system: metastatic lesion of oral fibrosarcoma
# [4] = system: multicellular prostate tumor spheroids; conditions: DC electrical field 500 V/m for 90 seconds
# [5] = system: cutaneous and subcutaneous tumors
# [6] = system: HNSCC permeation nodules, salivary cancer, and breast cancer; conditions: electrochemotherapy
# [7] = in vitro, administered along with electrical stimulation
# [8] = system: permeation nodules of head and neck squamous cell carcinomas
# [9] = system: subcutaneously established colorectal tumor
# [10] = system: subcutaneous metastasis of hypernephroma; conditions: three sessions over four weeks, electric pulses 10 minutes after intravenous injection
molecule,measurement,setting,value
N.N.O=C([O-])C1(C(=O)[O-])CCC1.[Pt+2] [carboplatin],enhancement of cytotoxicity by electric stimulation,[1]; carboplatin: high dose,only slightly enhanced
N.N.[Cl][Pt][Cl] [cisplatin],"platinum bound to DNA, electrochemotherapy versus cisplatin treated tumors",tumors in mice; all time points tested,Approximately two
same,tumor growth delay,"tumors in mice; cisplatin treatment without electric pulses, intratumoral 1-8 mg/kg",up to 20 days
same,tumor cures (local tumor control plateau),"tumors in mice; electrochemotherapy, 4 mg/kg, eight pulses 100 μsec, 1 Hz, 1040 V",67%
same,median time to progression,[2]; chemotherapy-treated nodules (cisplatin alone),four
same,tumor nodules responded,"[2]; cisplatin alone, 18 nodules",22%
same,tumor nodules responded,"[2]; electrochemotherapy, four weeks after treatment, 27 nodules",48%
same,median time to progression,[2]; electrochemotherapy-treated nodules,21 weeks
O=P1(N(CCCl)CCCl)NCCCO1 (centres unmarked) [cyclophosphamide],effect on tumor growth,[3]; cyclophosphamide injection alone,no significant suppressive effect
same,tumor size,"[3]; intraperitoneal injection followed by local electric pulses, several days after treatment",markedly reduced in size
COc1cccc2c1C(=O)c1c(O)c3c(c(O)c1C2=O)C[C@@](O)(C(=O)CO)C[C@@H]3O[C@H]1C[C@H](N)[C@H](O)[C@H](C)O1 [doxorubicin],uptake of doxorubicin,[4],did increase their uptake of doxorubicin
COc1cc([C@@H]2c3cc4c(cc3[C@@H](O[C@@H]3O[C@@H]5CO[C@@H](C)O[C@H]5[C@H](O)[C@H]3O)[C@H]3COC(=O)[C@H]23)OCO4)cc(OC)c1O [etoposide],enhancement of cytotoxicity by electric stimulation,[1],no electrochemotherapy enhancement
Cc1ncc(CNC(=O)N(CCCl)N=O)c(N)n1 [nimustine hydrochloride],enhancement of cytotoxicity by electric stimulation,[1]; carboplatin: high dose,no electrochemotherapy enhancement
CC[C@]1(O)C[C@H]2CN(CCc3c([nH]c4ccccc34)[C@@](C(=O)OC)(c3cc4c(cc3OC)N(C=O)[C@H]3[C@@](O)(C(=O)OC)[C@H](OC(C)=O)[C@]5(CC)C=CCN6CC[C@]43[C@@H]65)C2)C1 [vincristine],enhancement of cytotoxicity by electric stimulation,[1],no electrochemotherapy enhancement
bleomycin,complete responses in nodules,"[5]; bleomycin only, no electric pulses",No complete responses
same,patients responding to the treatment,"[5]; bleomycin plus 6-8 pulses, 1300 V/cm, 34 patients",All patients responded
same,nodules with complete responses,[5]; bleomycin plus electric pulses,91%
same,side effects,[5]; bleomycin plus electric pulses,no significant side effects were noted
same,metastatic nodules or primary tumors with responses,"[5]; bleomycin plus electric pulses, within 12 weeks",142 of 143
same,effectiveness after intraarterial or intranodular injection,[6],effective
same,antitumor effects,[6]; seven patients,Clear antitumor effects were obtained
same,factor by which the dose of bleomycin can be reduced,[7],100-5000
same,side effects,"[8]; 10 mg/m^2 intravenous bolus plus electric pulses, eight patients",Neither local nor general side effects were observed
same,nodules with clinical complete response,"[8]; 10 mg/m^2 intravenous bolus, then 4 or 8 cycles of 100 μsec pulses at 1300 V/cm, 40 nodules, within a few days",57%
same,increase of toxicity of bleomycin by electric stimulation,"human T98G glioma cells; 8 cycles, 1 Hz square wave, 100 μsecond, 1000 V/cm",more than 1000 fold
same,increase of toxicity at reduced bleomycin concentration,human T98G glioma cells; bleomycin concentration 100 pg/ml,This increase disappeared
same,tumor development,"[9]; intratumoral, intravenous or intraperitoneal, 1/50 to 1/2 of LD50, 500 to 2,000 V/cm",Significant suppression of tumor development and even some cures
same,cures on repeated electrochemotherapy,"[9]; lowest dose of bleomycin and lowest electric field intensity, repeated",complete cures of colorectal cancer were achieved in all animals
same,time for which tumor volume was stabilized,[10],12 months
